ChEMBL document CHEMBL3885881, “DrugMatrix”

Species: Rattus norvegicus
Test: DrugMatrix - Regimen: Daily Repeat
Assay type: toxicity, organism-based, Sprague-Dawley
Set-up: regimen Daily Repeat, gender Male, age 6-8 weeks
Conditions: in vivo, po, 400 mg/kg, route oral GAVAGE, dose level High, […]; for ABSOLUTE BASOPHIL / ABSOLUTE EOSINOPHIL / ABSOLUTE LYMPHOCYTE / ABSOLUTE MONOCYTE / ABSOLUTE SEGMENTED NEUTROPHIL / BASOPHIL / EOSINOPHIL / ERYTHROCYTE COUNT / HEMATOCRIT / HEMOGLOBIN / LEUKOCYTE COUNT / LYMPHOCYTE / MEAN CORPUSCULAR HEMOGLOBIN / MEAN CORPUSCULAR HEMOGLOBIN CONCENTRATION / MEAN CORPUSCULAR VOLUME / MONOCYTE / NEUTROPHIL / NUCLEATED RED BLOOD CELLS / PLATELET COUNT: tissue Blood; for ALANINE AMINOTRANSFERASE / ALBUMIN / ALKALINE PHOSPHATASE / ASPARTATE AMINOTRANSFERASE / BLOOD UREA NITROGEN / CARBON DIOXIDE / CHLORIDE / CHOLESTEROL / CREATINE PHOSPHOKINASE / CREATININE / GLUCOSE / LACTATE DEHYDROGENASE / LIPASE / PHOSPHORUS / POTASSIUM / SODIUM / TOTAL BILIRUBIN / TOTAL PROTEIN / URIC ACID: tissue Plasma

With `COC(=O)[C@H](c1ccccc1Cl)N1CCc2sccc2C1` [CLOPIDOGREL] as the compound, how does the “ABSOLUTE BASOPHIL” value (72 h, time 3 day) read?
The value was 0 CELLS/uL.

And the “ABSOLUTE EOSINOPHIL” value (72 h, time 3 day)?
The value was 86.67 CELLS/uL.

And the “ABSOLUTE LYMPHOCYTE” value (72 h, time 3 day)?
Its value is 12550.67 CELLS/uL.

What about the “ABSOLUTE MONOCYTE” value (72 h, time 3 day) of the same compound?
Its value is 229.67 CELLS/uL.

And the “ABSOLUTE SEGMENTED NEUTROPHIL” value (72 h, time 3 day)?
The value was 1366.33 CELLS/uL.

And the BASOPHIL (72 h, time 3 day)?
The BASOPHIL was 0%.

And the EOSINOPHIL (72 h, time 3 day)?
Its EOSINOPHIL is 0.67%.

What about the “ERYTHROCYTE COUNT” value (72 h, time 3 day) of the same compound?
The value was 5.22 x10E6/uL.

And the HEMATOCRIT (72 h, time 3 day)?
The HEMATOCRIT was 31.7%.

What about the HEMOGLOBIN (72 h, time 3 day) of the same compound?
The HEMOGLOBIN was 12.8 G/DL.

What about the “LEUKOCYTE COUNT” value (72 h, time 3 day) of the same compound?
The value was 14.23 x10E3/uL.

And the LYMPHOCYTE (72 h, time 3 day)?
Its LYMPHOCYTE is 88%.

And the “MEAN CORPUSCULAR HEMOGLOBIN” value (72 h, time 3 day)?
Its value is 24.5 pg.

What about the “MEAN CORPUSCULAR HEMOGLOBIN CONCENTRATION” value (72 h, time 3 day) of the same compound?
Its value is 40.4 G/DL.

What about the “MEAN CORPUSCULAR VOLUME” value (72 h, time 3 day) of the same compound?
Its value is 60.77 fL.

What about the MONOCYTE (72 h, time 3 day) of the same compound?
Its MONOCYTE is 1.67%.

And the NEUTROPHIL (72 h, time 3 day)?
The NEUTROPHIL was 9.67%.

And the “NUCLEATED RED BLOOD CELLS” value (72 h, time 3 day)?
Its value is 0 /100WBC.

What about the “PLATELET COUNT” value (72 h, time 3 day) of the same compound?
The value was 1169.33 x10E3/uL.

What about the “ALANINE AMINOTRANSFERASE” value (72 h, time 3 day) of the same compound?
The value was 98.67 u/L.

What about the ALBUMIN (72 h, time 3 day) of the same compound?
Its ALBUMIN is 3.97 G/DL.

What about the “ALKALINE PHOSPHATASE” value (72 h, time 3 day) of the same compound?
Its value is 463 u/L.

And the “ASPARTATE AMINOTRANSFERASE” value (72 h, time 3 day)?
The value was 113 u/L.

What about the “BLOOD UREA NITROGEN” value (72 h, time 3 day) of the same compound?
Its value is 13.67 mg/dL.

What about the “CARBON DIOXIDE” value (72 h, time 3 day) of the same compound?
Its value is 27.67 mmol/L.

What about the CHLORIDE (72 h, time 3 day) of the same compound?
Its CHLORIDE is 102.67 MEQ/L.

What about the CHOLESTEROL (72 h, time 3 day) of the same compound?
The CHOLESTEROL was 80 mg/dL.

And the “CREATINE PHOSPHOKINASE” value (72 h, time 3 day)?
The value was 460.67 u/L.

What about the CREATININE (72 h, time 3 day) of the same compound?
The CREATININE was 0.21 mg/dL.

What about the GLUCOSE (72 h, time 3 day) of the same compound?
The GLUCOSE was 145 mg/dL.

And the “LACTATE DEHYDROGENASE” value (72 h, time 3 day)?
The value was 361 u/L.

And the LIPASE (72 h, time 3 day)?
The LIPASE was 14.33 u/L.

What about the PHOSPHORUS (72 h, time 3 day) of the same compound?
Its PHOSPHORUS is 10.53 mg/dL.

What about the POTASSIUM (72 h, time 3 day) of the same compound?
The POTASSIUM was 6.16 MEQ/L.

What about the SODIUM (72 h, time 3 day) of the same compound?
The SODIUM was 141.23 MEQ/L.

What about the “TOTAL BILIRUBIN” value (72 h, time 3 day) of the same compound?
Its value is 0.23 mg/dL.

And the “TOTAL PROTEIN” value (72 h, time 3 day)?
Its value is 5.47 G/DL.

What about the “URIC ACID” value (72 h, time 3 day) of the same compound?
The value was 1.13 mg/dL.

What about the “ABSOLUTE BASOPHIL” value (120 h, time 5 day) of the same compound?
Its value is 0 CELLS/uL.

What about the “ABSOLUTE EOSINOPHIL” value (120 h, time 5 day) of the same compound?
The value was 131.33 CELLS/uL.

What about the “ABSOLUTE LYMPHOCYTE” value (120 h, time 5 day) of the same compound?
The value was 15650.33 CELLS/uL.

What about the “ABSOLUTE MONOCYTE” value (120 h, time 5 day) of the same compound?
Its value is 297.33 CELLS/uL.

What about the “ABSOLUTE SEGMENTED NEUTROPHIL” value (120 h, time 5 day) of the same compound?
The value was 2887.67 CELLS/uL.

What about the BASOPHIL (120 h, time 5 day) of the same compound?
Its BASOPHIL is 0%.

What about the EOSINOPHIL (120 h, time 5 day) of the same compound?
Its EOSINOPHIL is 0.67%.

And the “ERYTHROCYTE COUNT” value (120 h, time 5 day)?
Its value is 5.21 x10E6/uL.

And the HEMATOCRIT (120 h, time 5 day)?
The HEMATOCRIT was 31.5%.

And the HEMOGLOBIN (120 h, time 5 day)?
Its HEMOGLOBIN is 12.6 G/DL.

What about the “LEUKOCYTE COUNT” value (120 h, time 5 day) of the same compound?
The value was 18.97 x10E3/uL.

And the LYMPHOCYTE (120 h, time 5 day)?
Its LYMPHOCYTE is 84%.

And the “MEAN CORPUSCULAR HEMOGLOBIN” value (120 h, time 5 day)?
Its value is 24.17 pg.

And the “MEAN CORPUSCULAR HEMOGLOBIN CONCENTRATION” value (120 h, time 5 day)?
The value was 40 G/DL.

And the “MEAN CORPUSCULAR VOLUME” value (120 h, time 5 day)?
The value was 60.37 fL.

And the MONOCYTE (120 h, time 5 day)?
Its MONOCYTE is 1.67%.

And the NEUTROPHIL (120 h, time 5 day)?
Its NEUTROPHIL is 13.67%.

What about the “NUCLEATED RED BLOOD CELLS” value (120 h, time 5 day) of the same compound?
The value was 0 /100WBC.

What about the “PLATELET COUNT” value (120 h, time 5 day) of the same compound?
The value was 1167.67 x10E3/uL.

What about the “ALANINE AMINOTRANSFERASE” value (120 h, time 5 day) of the same compound?
The value was 76 u/L.

And the ALBUMIN (120 h, time 5 day)?
Its ALBUMIN is 3.8 G/DL.

And the “ALKALINE PHOSPHATASE” value (120 h, time 5 day)?
Its value is 362.67 u/L.

What about the “ASPARTATE AMINOTRANSFERASE” value (120 h, time 5 day) of the same compound?
Its value is 110.67 u/L.

And the “BLOOD UREA NITROGEN” value (120 h, time 5 day)?
Its value is 16.33 mg/dL.

What about the “CARBON DIOXIDE” value (120 h, time 5 day) of the same compound?
The value was 26 mmol/L.

And the CHLORIDE (120 h, time 5 day)?
The CHLORIDE was 101 MEQ/L.

And the CHOLESTEROL (120 h, time 5 day)?
Its CHOLESTEROL is 86.67 mg/dL.

And the “CREATINE PHOSPHOKINASE” value (120 h, time 5 day)?
Its value is 941 u/L.

And the CREATININE (120 h, time 5 day)?
Its CREATININE is 0.15 mg/dL.

And the GLUCOSE (120 h, time 5 day)?
Its GLUCOSE is 135 mg/dL.

And the “LACTATE DEHYDROGENASE” value (120 h, time 5 day)?
The value was 452.33 u/L.

What about the LIPASE (120 h, time 5 day) of the same compound?
Its LIPASE is 12.33 u/L.

And the PHOSPHORUS (120 h, time 5 day)?
Its PHOSPHORUS is 12.5 mg/dL.

What about the POTASSIUM (120 h, time 5 day) of the same compound?
Its POTASSIUM is 5.63 MEQ/L.

What about the SODIUM (120 h, time 5 day) of the same compound?
Its SODIUM is 141.87 MEQ/L.

And the “TOTAL BILIRUBIN” value (120 h, time 5 day)?
The value was 0.2 mg/dL.

And the “TOTAL PROTEIN” value (120 h, time 5 day)?
Its value is 5.4 G/DL.

What about the “URIC ACID” value (120 h, time 5 day) of the same compound?
Its value is 1.1 mg/dL.
